Columns and labels:
[1] = test system: CYP46A1; experiment: Western blotting of rat brain tissue, CYP46A1; type: in vivo; conditions: sesamin 60 mg/kg, 4 weeks, vs control
Procedure: (§1) The experiments were reviewed and approved by the Experimental Animal Centre of Dalian Medical University. All rats were obtained from Liaoning Changsheng Biotechnology co., Ltd. All animal experiments complied with the ARRIVE guidelines and were carried out in accordance with the National Institutes of Health guide for the care and use of laboratory animals (NIH Publications No. […], revised 1978). Wistar rats were randomly divided into the administration group (n = 5) and the control group (n = 5). The rats were provided with laboratory standard animal feed and kept under a 12-h light cycle. Sesamin (60 mg/kg) was given by intragastric administration daily for 4 weeks; the control group was given an equivalent volume of olive oil. The rats were anesthetized with pentobarbital sodium (40 mg/kg) and blood samples and brain tissue samples were collected for further assays.
(§2) The cells and tissues were harvested with lysis buffer and cleaved at 4°C for 20 min. All samples were centrifuged at 12,000 × g for 15 min at 4°C. The protein concentrations were quantified by BCA regent kits. Sodium dodecyl sulfate-polyacrylamide gel electrophoresis (SDS-PAGE) was used to separate the proteins, and they were then transferred to PVDF membranes. […] The protein bands were detected by a Tanon-5200 imaging system and the densities were analyzed by ImageJ software. […]

[2] = target: T1, recombinant human CYP46A1 (Homo sapiens, UniProt Q9Y6A2); experiment: Inhibition of CYP46A1-catalysed testosterone 16β-hydroxylation; type: biochemical; conditions: for residual activity of CYP46A1: 10 μM lignan; for residual activity of CYP46A1 / IC50: testosterone 10 μM as substrate; for α: mixed inhibition model; for Ki: testosterone 2–150 μM; for Type of inhibition: testosterone as substrate
T1 construct: purchased Cypex (Dundee, Scotland, United Kingdom)
Procedure: 16β-hydroxytestosterone formation catalyzed by CYP46A1 was conducted at conditions linear for the duration of incubation and protein concentration. […] After preliminary incubation at 37°C for 5 min, 10 μL NADPH (final concentration, 1 mM) was added to initiate the reaction for 10 min. The reaction was stopped by adding the same volume of acetonitrile containing 1 μM of the internal standard. The mixture was left on ice until it was centrifuged at 20,000×g for 20 min at 4°C. Aliquots of the supernatant were stored at −20°C until analysis. The possible inhibitory intensities of the sesame lignans were evaluated by quantifying the 16-OH-TST generated.
Testosterone 16β-hydroxylation reaction samples were injected into an API 3200 triple quadrupole mass spectrometer (Applied Biosystems, Concord, Ontario, Canada) and an Agilent HP1200 LC system (Agilent Technology Inc., CA, United States). The chromatographic separation was performed on a Hypersil ODS-BP column (150 mm × 2.1 mm, 5 μm; Dalian Elite Analytical Instruments Co. Ltd., China) at ambient temperature. IonSpray Voltage (IS): 4500 V; Temperature (TEM): 590°C; Ion Source Gas1 (GS1, N1): […]; Ion Source Gas2 (GS2, N2): […]; Curtain Gas (CUR): 30 psi; Collision Gas (CAD): 12 psi. MS/MS conditions for analyzed compounds are shown in Supplementary Table S1. Mobile phase A consisted of 0.1% formic acid in water; mobile phase B consisted of 0.1% formic acid in acetonitrile; the flow rate was 0.4 ml/min. The gradient elution program was 0–1 min, 95% A; 1–3 min, 95%–65% A; 3–5 min, 65%–35% A; 5–6 min, 35%–15% A; 6–8 min, 15% A; 15%–95% A, 8–8.1 min; 8.1–12 min, 95% A. 16β-hydroxytestosterone and Carbamazepine (internal standard) were monitored in the positive ion mode, and detected by fragment ions at m/z 305.2→97.2 and 237.1→194.2, respectively. LC-MS/MS data acquisition and integration were performed with Analyst 1.6.3 using the internal standard and peak-area ratios for calculation (linear regression, 1/x weighting).
The three equations and the inhibition constant were as described in our previously published methods ([Wu et al., 2017]). v=Vmax⋅S/Km⋅(1+I/Ki)+S (1) v=Vmax⋅S/(Km+S)⋅(1+I/Ki) (2) v=Vmax⋅S/Km⋅(1+I/Ki)+S⋅(1+I/α⋅Ki) (3) where v is the reaction velocity; S and I denote the substrate and inhibitor concentrations, respectively; K i represents the inhibition constant describing the affinity of the inhibitor for the enzyme; K m refers to the substrate concentration at half-maximal velocity (V max) of the reaction. The α value determines the degree of change in enzyme affinity for the substrate following the binding of the inhibitor. When α is less than 1, binding of an inhibitor […] substrate binding, and the mixed model is identical to non-competitive inhibition. When α is very large (α > 1), the binding of an inhibitor […] substrate binding, and the mixed model depicts competitive inhibition. The type of inhibition was determined by fitting the data to enzyme inhibition models. The goodness-of-fit of kinetic and inhibition models was assessed using R ^2 values and parameter S.D. estimates. Dixon and Lineweaver-Burk plots were also used to characterize the inhibition kinetics. Kinetic constants are reported as the mean ± S.D. of the parameter estimate.

[3] = test system: CYP46A1 activity (24S-hydroxycholesterol); experiment: 24S-hydroxycholesterol levels in rat plasma and brain (ELISA) after sesamin; type: in vivo; conditions: sesamin 60 mg/kg intragastric once daily, 4 weeks
Procedure: as §1, with “assays. The levels of 24S-hydroxycholesterol in rat plasma and brain tissues were measured by ELISA kits (Proteintech Group, Wuhan, China), according to the manufacturer’s instructions.” for “assays.”

[4] = test system: HMGCR mRNA; experiment: Quantitative real-time PCR of rat brain, HMGCR mRNA; type: in vivo; conditions: sesamin 60 mg/kg, 4 weeks, vs control
Procedure: as §1, with “assays. The experimental procedure was performed as described previously ([Wen et al., 2018]). Total brain RNA and cDNA synthesis were meausured with an RNAiso Plus Reagent Kit and SYBR Premix Ex Taq Kit, respectively (Takara Biotechnology, Dalian, China). Quantitative real-time PCR was performed using SYBR Green PCR Master Mix and an ABI prim 7500 Sequence Detection System (Applied Biosystems, United States). Primers used for RT-qPCR are shown in Supplementary Table S2.” for “assays.”

[5] = test system: CYP46A1; experiment: Western blotting of CYP46A1 protein in h-CYP46A1-Neuro-2a cells; type: cell-based, human; conditions: 20 μM, 24 h
Procedure: MDCK-MDR1 cells and Neuro-2a-CYP46A1 cells were cultured in DMEM containing 10% (v/v) FBS, 1% nonessential amino acids, 100 U/mL penicillin G, and 100 μg/ml streptomycin, and incubated at 37°C in the presence of 5% CO2 and 95% humidity. The Neuro-2a-CYP46A1 cells were seeded into six-well plates at a density of 1 × 10^5 cells per well and cultured for 24 h. Drug intervention experiments were conducted by replacing the medium with a serum-free medium containing sesame ligands (20 μM) for 24 h.
The cells and tissues were harvested with lysis buffer and cleaved at 4°C for 20 min. All samples were centrifuged at 12,000 × g for 15 min at 4°C. The protein concentrations were quantified by BCA regent kits. Sodium dodecyl sulfate-polyacrylamide gel electrophoresis (SDS-PAGE) was used to separate the proteins, and they were then transferred to PVDF membranes. After incubation of the membranes with 5% non-fat milk for 2 h, they were then incubated with the primary antibodies at 4°C overnight. After washing three times, the membranes were incubated with the secondary antibody for 2 h. The protein bands were detected by a Tanon-5200 imaging system and the densities were analyzed by ImageJ software. The GAPDH antibody served as the internal control for sample loading.

[6] = test system: CYP2C9; conditions: read-out: value of competitive inhibition of 7-position hydroxylation of S-warfarin, ref Fujii et al., 2020; cited from earlier work
[7] = test system: HMGCR; experiment: Western blotting of rat brain tissue, HMGCR; type: in vivo; conditions: sesamin 60 mg/kg, 4 weeks, vs control
Procedure: as §1, §2

[8] = test system: CYP46A1 mRNA; experiment: Quantitative real-time PCR of rat brain, CYP46A1 mRNA; type: in vivo; conditions: sesamin 60 mg/kg, 4 weeks, vs control
Procedure: as §1, with “assays. The experimental procedure was performed as described previously ([Wen et al., 2018]). Total brain RNA and cDNA synthesis were meausured with an RNAiso Plus Reagent Kit and SYBR Premix Ex Taq Kit, respectively (Takara Biotechnology, Dalian, China). Quantitative real-time PCR was performed using SYBR Green PCR Master Mix and an ABI prim 7500 Sequence Detection System (Applied Biosystems, United States). Primers used for RT-qPCR are shown in Supplementary Table S2.” for “assays.”

[9] = test system: NMDAR2B; experiment: Western blotting of rat brain tissue, NMDAR2B; type: in vivo; conditions: sesamin 60 mg/kg, 4 weeks, vs control
Procedure: as §1, §2

[10] = test system: NMDAR2A; experiment: Western blotting of rat brain tissue, NMDAR2A; type: in vivo; conditions: sesamin 60 mg/kg, 4 weeks, vs control
Procedure: as §1, §2

[11] = Membrane permeability assay across MDCK-MDR1 monolayer; conditions: dog
Procedure: (§3) To estimate the permeability of the sesamin lignans across the blood-brain barrier (BBB), a membrane permeability assay was conducted with an MDCK-MDR1 monolayer. The transport assays were performed by seeding MDCK-MDR1 cells on a tissue culture plate insert (BIOFIL®, PC membrane, 0.33 cm^2 surface area, 0.4 μm pore size) in 24-well companion plates for 5 days. The culture medium was changed once every 2–3 days. To confirm the confluency of the cell monolayer, the trans-epithelial electrical resistance (TEER) of each well was measured before the transport assay using a resistance meter (Millipore, Millicell® ERS-2, United States). […] The cell monolayer was gently washed with Hank’s Balanced Salt Solution (HBSS) at 37°C and the transwell chamber was pre-incubated for 30 min. […] After 120 min of incubation, a 50 μL sample was removed from the receiver compartment and uniformly mixed with 50 μL methanol. Then, it was centrifuged at 20,000 ×g at 4°C for 20 min. All available samples in the receiver compartments were injected into the HPLC system for analysis. The HPLC system comprised an Agilent MSD/MS system controller, two 1,260 series pumps, a 1,200 series autosampler, a 1,200 series variable wavelength detector, and an elite ODS-BP analysis column (4.6 × 200 mm, 5 μm). The mobile phase for sesame lignans was methanol/water (80/20, v/v), and the flow rate was 0.8 ml/min with a detector wavelength of 290 nm. […] Ultraviolet detection was performed at 230 nm. The permeability (P app) and efflux ratio (ER) were calculated as follows (Eqs. 4, 5) ([Grès et al., 1998]). Papp=dQ/dt⋅1/A⋅C0 (4) In Eq. (4), A denotes the area of mass transfer, C0 represents the donor concentration of compound in the upper medium, and dQ/dt is the rate of transmembrane transportation. […] ER=Papp, B→A/Papp, A→B (5)
(§4) In Eq. (5), P app, B→A denotes the basal to apical (B-A) transport rate, and P app, A→B is the apical to basal (A-B) transport rate.

[12] = in vitro; conditions: dog, MDCK-MDR1
Procedure: as §3, §4

T1 sequence (Q9Y6A2 whole entry): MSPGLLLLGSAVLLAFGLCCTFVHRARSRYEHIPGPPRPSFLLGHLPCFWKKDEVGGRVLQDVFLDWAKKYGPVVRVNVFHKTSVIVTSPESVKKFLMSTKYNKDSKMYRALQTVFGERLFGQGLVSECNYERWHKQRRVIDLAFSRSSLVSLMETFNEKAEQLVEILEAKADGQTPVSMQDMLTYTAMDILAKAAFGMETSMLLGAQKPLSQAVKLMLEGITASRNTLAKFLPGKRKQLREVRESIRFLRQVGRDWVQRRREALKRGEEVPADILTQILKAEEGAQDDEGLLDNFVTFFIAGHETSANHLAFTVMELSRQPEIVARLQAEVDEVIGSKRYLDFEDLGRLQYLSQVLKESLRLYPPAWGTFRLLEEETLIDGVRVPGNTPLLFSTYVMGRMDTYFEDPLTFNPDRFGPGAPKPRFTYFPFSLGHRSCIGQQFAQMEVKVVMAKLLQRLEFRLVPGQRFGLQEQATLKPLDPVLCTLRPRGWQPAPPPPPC

| Structure (SMILES) | reduction of CYP46A1 protein expression in rat brain tissue [1] | residual activity of CYP46A1 [2] | α [2] | IC50 [2] | Ki [2] | Type of inhibition [2] | Type of inhibition ([2]; listed as sesamin) | decrease of 24S-HC level in brain [3] | plasma concentration of 24S-HC [3] | reduction of 24S-HC level in plasma [3] | change of HMGCR mRNA expression in rat brain [4] | reduction of CYP46A1 protein level vs control [5] | Ki [6] | reduction of HMGCR protein expression in rat brain tissue [7] | change of CYP46A1 mRNA expression in rat brain [8] | reduction of NMDAR2B protein expression in rat brain tissue [9] | reduction of NMDAR2A protein expression in rat brain tissue [10] | Papp at 120 min, 20 μM [11] | Type of inhibition ([2]; listed as sesamolin) | Papp at 120 min, 20 μM [12] |
| --- | --- | --- | --- | --- | --- | --- | --- | --- | --- | --- | --- | --- | --- | --- | --- | --- | --- | --- | --- | --- |
| c1cc2c(cc1[C@H]1OC[C@H]3[C@@H]1CO[C@@H]3c1ccc3c(c1)OCO3)OCO2 [Sesamin, sesamin] | 27.3% | 36.2% | 6.491 | 6.02 µM | 6.87 ± 1.07 µM | mixed inhibition | mixed partial competitive inhibition | 29.3% | 45.747 ng/mL | 55.88% | no significant changes | 28.1% | 13.1 µM | 31.6% | no significant changes | 43.5% | 22.1% | 6.75 ×10⁻⁶ cm/s |  |  |
| Oc1ccc2c(c1)OCO2 [Sesamol, sesamol] |  | 59.4% |  | 21.3 ± 4.74 µM | 18.7 ± 0.72 µM | Non-competitive |  |  |  |  |  | 26.1% |  |  |  |  |  | 35.3 ×10⁻⁶ cm/s |  |  |
| c1cc2c(cc1O[C@H]1OC[C@H]3[C@@H]1CO[C@@H]3c1ccc3c(c1)OCO3)OCO2 [Sesamolin, sesamolin] |  | 25.8% | 4.891 | 3.34 ± 0.543 µM | 4.02 ± 0.786 µM | Mixed |  |  |  |  |  | 57.1% |  |  |  |  |  |  | mixed partial competitive inhibition | 20.5 ×10⁻⁶ cm/s |
